For this experiment, the system named is Normal human fibroblasts (NHF). The experiment in a line: Fibroblast proliferation by BrdU incorporation. As to conditions: single agent; Ascophyscient 10 and 100 μg/ml, sodium hyaluronate 100 and 1000 μg/ml; 44 hours, DMEM with 3% FCS; FIG. 2. The class given is cell-based. As for the experimental part: The technique used is that of incorporation of a nucleotide, 5-bromo-2′-deoxyuridine (BrdU), a thymidine analog, in the DNA of S-phase cells, at 37° C. This technique makes it possible to quantify cells of which the advance in the cell cycle is characteristic of a proliferating cell (S-phase or DNA synthesis phase). Normal human fibroblasts (NHF), isolated from surgical waste skin, are usually cultivated in Dulbecco's modified Eagle's medium (DMEM) with 10% fetal calf serum (FCS). In our experimental conditions, dilutions of the products to be tested are prepared in DMEM with 3% FCS. The cells are first deprived of FCS for 24 hours to stop cell multiplication before incubating them in the presence of the molecules to be evaluated for 44 hours at 37° C., in a 5% CO2 atmosphere. BrdU incorporation, proportional to cell proliferation rate, is evaluated by an anti-BrdU antibody system (Roche Applied Science). The corresponding absorbance (OD) is measured at 450 nm. This datum is thus proportional to cell proliferation rate. […] Analysis of the Results: • expressed as OD (proportional to BrdU incorporation and thus to cell proliferation rate) • expressed as percent stimulation: [formula] • expressed as standard error of the mean: SEM=standard deviation (SD)/√n Statistical analyses using unpaired bilateral Student's t-test were carried out on the raw OD values. […]

The source of these data is patent publication US20170049678A1, “COMBINATION OF A HYALURONIC ACID AND OF A SULPHATED POLYSACCHARIDE” (PIERRE FABRE DERMO-COSMETIQUE, priority 2014, published 2017).

As to sodium hyaluronate, the “fibroblast proliferation (BrdU incorporation, OD 450 nm)” value is “moderate effect on fibroblast proliferation”.
